As a reminder, the inhibition is the change of the read-out against control, counted positive when it falls.

One series concerns T. cruzi. As to conditions: cited from earlier work.
Series [1] has as its system T. cruzi epimastigotes (Tulahuen 2 strain). Put plainly: In vitro activity on T. cruzi epimastigotes. Type of series: cell-based. Conditions: Trypanosoma cruzi, 120 h, read-out: PGI25μM (%) (epimastigote): percentage of growth inhibition of T. cruzi epimastigote cells.

Turning to `O=P(O)(O)C(O)(Cc1cccnc1)P(=O)(O)O` [NaRis, (1-hydroxy-1-phosphono-2-pyridin-3-yl-ethyl)phosphonate], in the series on T. cruzi, the “Parasitemia in infected mice” value is “significantly reduces the parasitemia” and the “Toxicity in infected mice” value was “no toxicity”. For the same molecule, the Animal survival result in the series on T. cruzi (infected mice) is “increases the animal survival”. For the same molecule, in series [1], the inhibition at 25 µM came out at 19%.
